According to US8785638B2, “Thieno [2, 3-B] pyridine derivatives as viral replication inhibitors” (Katholieke Universiteit Leuven, priority 2009, dated 2014):
Where two headings read alike, the source gives them in different places.

Experiments:
[1] = Cytotoxicity in mock-infected MT-4 cells (MTT); assay type: cell-based; settings: human, 50% cytotoxic concentration
Protocol: (§1) A rapid and automated assay procedure was used for the in vitro evaluation of anti-HIV agents. An HTLV-1 transformed T4-cell line MT-4, which was previously shown to be highly susceptible to and permissive for HIV infection, served as the target cell line. Inhibition of the HIV-induced cytopathogenic effect was used as the end point. The viabitlity of both HIV- and mock-infected cells was assessed spectrophotometrically via in situ reduction of 3-(4,5-dimethylthiazol-2-yl)-2,5-diphenyltetrazolium bromide (MTT). The 50% cytotoxic concentration (CC50 in μM or μg/ml) was defined as the concentration of compound that reduced the absorbance of the mock-infected control sample by 50%. The percent protection achieved by the compound in HIV-infected cells was calculated by the following formula:
(§2) [formula] whereby (ODT)HIV is the optical density measured with a given concentration of the test compound in HIV-infected cells; (ODC)HIV is the optical density measured for the control untreated HIV-infected cells; (ODC)MOCK is the optical density measured for the control untreated mock-infected cells; all optical density values were determined at 540 nm. The dose achieving 50% protection according to the above formula was defined as the 50% inhibitory concentration (EC50 in μM or μg/ml). The ratio of CC50 to EC50 was defined as the selectivity index (SI). […] Examples of inhibition of cell proliferation by particular compounds of the invention can be found by looking at the respective CC50 values in the MT-4 cell line. Cells:
(§3) MT-4 cells (Miyoshi et al., 1982) were grown and maintained in RPMI 1640 medium supplemented with 10% heat-inactivated fetal calf serum, 2 mM I-glutamine, 0.1% sodium bicarbonate, and 20 μg of gentamicin per ml. Alternatively, the MT-4 cells may also be grown in RPMI 1640 medium supplemented with 10% FCS and 20 μg/ml of gentamicin (RPMI-complete).

[2] = target: LEDGF/p75-HIV-1 integrase interaction (Human immunodeficiency virus type 1 group M subtype B (isolate HXB2) (HIV-1), UniProt P04585); assay: AlphaScreen assay of LEDGF-integrase interaction inhibition; assay type: binding
Protocol: Alphascreen Assay to Measure the LEDGF-Integrase Interaction Inhibitory Activity of Compounds of the Invention
The AlphaScreen assay was performed according to the manufacturer's protocol (Perkin Elmer, Benelux). Reactions were performed in 25 μl final volume in 384-well Optiwell™ microtiter plates (Perkin Elmer). The reaction buffer contained 25 mM Tris-HCl (pH 7.4), 150 mM NaCl, 1 mM MgCl2, 0.01% (v/v) Tween-20 and 0.1% (w/v) bovine serum albumin. His6-tagged integrase (300 nM final concentration) was incubated with the compounds for 30 min at 4° C. The compounds were added at varying concentrations spanning a wide range from 0.1 up to 100 μM. Afterwards 100 nM flag-LEDGF/p75 was added and incubation was prolonged for an additional hour at 4° C. Subsequently 5 μl of Ni-chelate-coated acceptor beads and 5 μl anti-flag donor beads were added to a final concentration of 20 μg/ml of both beads. Proteins and beads were incubated for 1 h at 30° C. in order to allow association to occur. Exposure of the reaction to direct light was omitted as much as possible and the emission of light from the acceptor beads was measured in the EnVision plate reader (Perkin Elmer, Benelux) and analyzed using the EnVision manager software. IN/DNA binding was analyzed in a similar setting using His6-tagged integrase (1 μM final concentration) and an oligodeoxynucleotide mimicking the IN ELISA oligonucleotide substrate (30 nM final concentration). Counterscreens with JPO2 or PogZ, respectively, were essentially performed as described previously.
His6-tagged HIV-1 integrase, 3xflag-tagged LEDGF/p75, MBP-JPO2 and MBP-PogZ were purified for AlphaScreen applications as described previously 23,25,56.

[3] = tested on: HIV-1 (IIIB), HIV-1 (NL4.3); assay: microbe, parasite or virus in culture; assay type: cell-based; settings: for EC50: Human immunodeficiency virus 1, IIIB, MT4, MT-4 cells, 50% protection against HIV-induced cytopathogenic effect, MTT; for SI: selectivity index, ratio of CC50 to EC50
Protocol: as §1, §2, §3
The HIV-1 (IIIB) strain (Popovic et al., 1984) as well as the HIV-1 (NL4.3) strain (Adachi et al., J. Virol. 59, 284-291 (1986)) were used.

[4] = His6-tagged integrase 300 nM, flag-LEDGF/p75 100 nM, read-out: Alphascreen IC50

| SMILES | CC50 [1] [µM] | IC50 [2, 4] [µM] | EC50 [3] [µM] | SI [3] | IC50 [2] [µM] |
| --- | --- | --- | --- | --- | --- |
| CCCC(C(=O)O)c1c(C)nc2sc3c(c2c1-c1ccc(C(F)(F)F)cc1)CCC3 (centres unmarked) [Cpd 116, 2-[2-Methyl-4-(4-trifluoromethylphenyl)-6,7-dihydro-5H-cyclopenta[4,5]thieno[2,3-b]pyridin-3-yl]pentanoic acid] | 14.7 | 0.62 | 1.21 | 12 |  |
| CCCC(C(=O)O)c1c(C)nc2sc3c(c2c1-c1ccc(CC)cc1)CCC3 (centres unmarked) [Cpd 117, 2-[2-Methyl-4-(4-ethylphenyl)-6,7-dihydro-5H-cyclopenta[4,5]thieno[2,3-b]pyridin-3-yl]pentanoic acid] | 54.3 | 0.78 | 0.53 | 107 |  |
| CCCC(C(=O)O)c1c(C)nc2scc(C)c2c1-c1ccc(C)cc1 (centres unmarked) [Cpd 118, 2-(3,6-Dimethyl-4-p-tolylthieno[2,3-b]pyridin-5-yl)pentanoic acid] | 50.2 | 23.4 | > 50.2 |  |  |
| CCCC(C(=O)O)c1c(C)nc2sccc2c1-c1ccc(C)cc1 (centres unmarked) [Cpd 119, 2-(6-Methyl-4-p-tolylthieno[2,3-b]pyridin-5-yl)pentanoic acid] | 109 | 2.66 | 31.6 | 4 |  |
| CCCC(C(=O)O)c1c(C)nc2sc3ccccc3c2c1-c1ccc(C)cc1 (centres unmarked) [Cpd 120, 2-[2-Methyl-4-p-tolylbenzo[4,5]thieno[2,3-b]pyridin-3-yl]pentanoic acid] | 101 | 2.72 | 1.51 | 67 |  |
| COCCC(C(=O)O)c1c(C)nc2sc3c(c2c1-c1ccc(C)cc1)CCC3 (centres unmarked) [Cpd 122, 2-[2-methyl-4-(p-tolyl)-6,7-dihydro-5H-cyclopenta[4,5]thieno[2,3-b]pyridin-3-yl]-4-O-methoxy-butanoic acid] | 79.8 | 3.2 | 5.3 | 15 |  |
| C=C(C(=O)O)c1c(C)nc2sc3c(c2c1-c1ccc(C)cc1)CCC3 [Cpd 124, 2-[2-methyl-4-p-tolyl-6,7-dihydro-5H-cyclopenta[4,5]thieno[2,3-b]pyridin-3-yl]acrylic acid] | 117 | 41 | > 117 |  |  |
| COCC(C(=O)O)c1c(C)nc2sc3c(c2c1-c1ccc(C)cc1)CCC3 (centres unmarked) [Cpd 125, 2-[2-Methyl-4-(p-tolyl)-6,7-dihydro-5H-cyclopenta[4,5]thieno[2,3-b]pyridin-3-yl]-3-methoxypropanoic acid] | > 125 | 77 | 66.5 | >2 |  |
| CCCC(C(=O)O)c1c(-c2ccccc2)nc2sc3c(c2c1-c1ccc(C)cc1)CCC3 (centres unmarked) [Cpd 126, 2-[2-phenyl-4-p-tolyl-6,7-dihydro-5H-cyclopenta[4,5]thieno[2,3-b]pyridin-3-yl]pentanoic acid] | 30.1 | 56.3 | > 30.1 |  |  |
| CCCC(C(=O)O)c1c(C)nc2sc3c(c2c1-c1ccc(C)cc1)CC(C)C3 (centres unmarked) [Cpd 127, 2-[2-methyl-6-methyl-4-p-tolyl-6,7-dihydro-5H-cyclopenta[4,5]thieno[2,3-b]pyridin-3-yl]pentanoic acid] | 82.9 | 2.85 | 0.79 | 105 |  |
| CCCC(C(=O)O)c1c(C)nc2sc3c(c2c1-c1ccc(C)cc1)CCC3C (centres unmarked) [Cpd 128, 2-[2-methyl-7-methyl-4-p-tolyl-6,7-dihydro-5H-cyclopenta[4,5]thieno[2,3-b]pyridin-3-yl]pentanoic acid] | 121 | 11.3 | 4.07 | 30 |  |
| CCCC(C(=O)O)c1c(C)nc2sc3c(c2c1-c1ccco1)CCC3 (centres unmarked) [Cpd 129, 2-[2-Methyl-4-(2-furyl)-6,7-dihydro-5H-cyclopenta[4,5]thieno[2,3-b]pyridin-3-yl]pentanoic acid] | 130 | 48 | > 130 |  |  |
| CCCC(C(=O)O)c1c(C)nc2sc3c(c2c1-c1cccs1)CCC3 (centres unmarked) [Cpd 130, 2-[2-Methyl-4-(2-thienyl)-6,7-dihydro-5H-cyclopenta[4,5]thieno[2,3-b]pyridin-3-yl]pentanoic acid] | 130 | 30.6 | 29.6 | 4 |  |
| CCCC(C(=O)O)c1c(C)nc2sc3c(c2c1-c1ccc(OC)cc1)CCC3 (centres unmarked) [Cpd 131, 2-[2-Methyl-4-(p-anisyl)-6,7-dihydro-5H-cyclopenta[4,5]thieno[2,3-b]pyridin-3-yl]pentanoic acid] | 127 |  | 2.43 | 52 | 4.54 |
| CCCC(C(=O)O)c1c(C)nc2sc3c(c2c1-c1ccc(C)cc1)CCOC3 (centres unmarked) [Cpd 133, 2-[2-Methyl-4-(p-tolyl)-5,8-dihydro-6H-7-oxa-9-thia-1-aza-fluoren-3-yl]pentanoic acid] | 165 | 7.8 | 18 | 8 |  |
| Cc1ccc(-c2c(C(Cc3ccccc3)C(=O)O)c(C)nc3sc4c(c23)CCC4)cc1 (centres unmarked) [Cpd 134, 2-[2-Methyl-4-(4-methylphenyl)-6,7-dihydro-5H-cyclopenta[4,5]thieno[2,3-b]pyridin-3-yl]-3-phenylpropanoic acid] | 114 | 84.1 | > 114 |  |  |
| CCCC(C(=O)O)c1c(C)nc2sc3c(c2c1-c1ccc(C)cc1)CCCCC3 (centres unmarked) [Cpd 135] | 109 |  | 42.4 | 3 | 55.8 |
| Cc1ccc(-c2c(C(CC(C)C)C(=O)O)c(C)nc3sc4c(c23)CCCC4)cc1 (centres unmarked) [Cpd 136, 2-[2-Methyl-4-(p-tolyl)-5,6,7,8-tetrahydro[1]benzothieno[2,3-b]pyridin-3-yl]-4-methylpentanoic acid] | 86.4 | 4.34 | 1.02 | 85 |  |
| CCCC(C(=O)O)c1c(C)nc2sc3c(c2c1-c1ccccc1Cl)CCCC3 (centres unmarked) [Cpd 137, 2-[2-Methyl-4-(2-chlorophenyl)-5,6,7,8-tetrahydro[1]benzothieno[2,3-b]pyridin-3-yl]pentanoic acid] | 111 | 51.9 | > 111 |  |  |
| CCCC(C(=O)O)c1c(C)nc2sc3c(c2c1-c1cccc(Cl)c1)CCCC3 (centres unmarked) [Cpd 138, 2-[2-Methyl-4-(3-chlorophenyl)-5,6,7,8-tetrahydro[1]benzothieno[2,3-b]pyridin-3-yl]pentanoic acid] | 100 | 39.9 | 43.3 | 2 |  |
| CCCC(C(=O)O)c1c(C)nc2sc3c(c2c1-c1ccc(Cl)c(Cl)c1)CCCC3 (centres unmarked) [Cpd 139, 2-[2-Methyl-4-(3,4-dichlorophenyl)-5,6,7,8-tetrahydro[1]benzothieno[2,3-b]pyridin-3-yl]pentanoic acid] | 55.1 | 9.24 | 5.32 | 10 |  |
| CCCC(C(=O)O)c1c(C)nc2sc3c(c2c1-c1cccc(C(F)(F)F)c1)CCCC3 (centres unmarked) [Cpd 140, 2-[2-Methyl-4-(3-trifluoromethylphenyl)-5,6,7,8-tetrahydro[1]benzothieno[2,3-b]pyridin-3-yl]pentanoic acid] | 100 | 18.1 | 28.2 | 4 |  |
| CCCC(C(=O)O)c1c(C)nc2sc3c(c2c1-c1cccc(C)c1)CCCC3 (centres unmarked) [Cpd 141, 2-[2-Methyl-4-(m-tolyl)-5,6,7,8-tetrahydro[1]benzothieno[2,3-b]pyridin-3-yl]pentanoic acid] | 55.5 | 23.7 | 14.8 | 4 |  |
